From the Kinase Knowledgebase extract (Sharma et al. 2016)

Columns and labels:
[1] = molecular target: EGFR (human) (UniProt P00533); details: a431
[2] = molecular target: EGFR (UniProt P00533)
Sequence of EGFR (P00533 whole entry, looked up): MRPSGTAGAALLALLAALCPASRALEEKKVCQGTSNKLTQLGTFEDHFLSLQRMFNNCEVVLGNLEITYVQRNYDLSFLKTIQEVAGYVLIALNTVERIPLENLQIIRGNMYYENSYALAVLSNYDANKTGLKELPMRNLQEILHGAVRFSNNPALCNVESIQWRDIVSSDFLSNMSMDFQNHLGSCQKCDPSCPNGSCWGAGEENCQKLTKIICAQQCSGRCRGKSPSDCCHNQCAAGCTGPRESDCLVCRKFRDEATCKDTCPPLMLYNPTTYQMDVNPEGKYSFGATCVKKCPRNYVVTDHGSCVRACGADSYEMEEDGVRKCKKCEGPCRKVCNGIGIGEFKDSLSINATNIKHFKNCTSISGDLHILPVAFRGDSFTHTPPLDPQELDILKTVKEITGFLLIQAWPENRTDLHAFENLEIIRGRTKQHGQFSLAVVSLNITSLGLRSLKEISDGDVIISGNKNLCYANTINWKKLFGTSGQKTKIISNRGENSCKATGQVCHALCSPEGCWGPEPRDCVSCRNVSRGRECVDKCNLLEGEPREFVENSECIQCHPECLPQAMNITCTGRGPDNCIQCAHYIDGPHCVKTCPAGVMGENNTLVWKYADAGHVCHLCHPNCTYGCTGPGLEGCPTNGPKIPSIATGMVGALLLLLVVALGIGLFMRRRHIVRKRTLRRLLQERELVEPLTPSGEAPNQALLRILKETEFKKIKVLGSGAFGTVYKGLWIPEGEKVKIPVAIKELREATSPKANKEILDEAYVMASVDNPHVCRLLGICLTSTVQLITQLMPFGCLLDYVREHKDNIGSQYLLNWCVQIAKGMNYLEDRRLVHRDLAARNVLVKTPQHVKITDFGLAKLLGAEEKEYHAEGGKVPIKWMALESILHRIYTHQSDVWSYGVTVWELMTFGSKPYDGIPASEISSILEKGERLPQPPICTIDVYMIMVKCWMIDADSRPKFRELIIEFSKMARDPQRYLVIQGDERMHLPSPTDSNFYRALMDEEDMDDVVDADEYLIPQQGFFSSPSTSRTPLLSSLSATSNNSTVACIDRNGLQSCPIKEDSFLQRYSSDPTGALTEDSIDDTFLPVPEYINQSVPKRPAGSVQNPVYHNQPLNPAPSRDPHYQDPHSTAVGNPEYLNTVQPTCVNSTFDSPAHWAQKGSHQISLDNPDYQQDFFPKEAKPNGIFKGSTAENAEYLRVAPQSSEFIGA

Sequence of EGFR (human) (P00533 whole entry, looked up): as above

SMILES | IC50 [1] | IC50 [2]
COc1cc2nccc(Oc3ccc(C(=O)c4ccccc4)cc3)c2cc1OC | 50 µM | 
COc1cc2nccc(Oc3ccc(C(=O)Nc4ccc(C(C)(C)C)cc4)cc3)c2cc1OC | 30 µM | 
COc1cc2nccc(Oc3ccc(C(=O)c4ccc(Cl)c(Cl)c4)cc3)c2cc1OC | 31 µM | 
COc1cc2nccc(Oc3ccc(C(=O)c4ccc(C)cc4)cc3)c2cc1OC | > 100 µM | 
COc1cc2nccc(Oc3ccc(C(=O)c4ccc(C(C)(C)C)cc4)cc3)c2cc1OC | > 100 µM | > 100 µM
COc1cc2nccc(Oc3ccc(NC(=O)c4ccc(-c5ccccc5)cc4)cc3)c2cc1OC | > 100 µM | 
COc1cc(OC)cc(Oc2ccnc3cc(OC)c(OC)cc23)c1 | 49 µM | 
COc1cc2nccc(Oc3ccccc3N)c2cc1OC | < 10 µM | 
COc1cc2nccc(Oc3ccc(C(=O)c4cccc(F)c4)cc3)c2cc1OC | 28 µM | 
COc1cc2nccc(Oc3ccc(NC(C)=O)cc3)c2cc1OC | > 100 µM | 
COc1cccc(Oc2ccnc3cc(OC)c(OC)cc23)c1 | 18 µM | 
COc1cc2nccc(Oc3ccc(NC(=O)C4CCCC4)cc3)c2cc1OC | > 100 µM | 
COc1cc2nccc(Oc3ccc(C(=O)c4cccc(C)c4)cc3)c2cc1OC | 95 µM | 
COc1cc2nccc(Oc3ccc(C(=O)c4ccc(F)cc4)cc3)c2cc1OC | 75 µM | 
COc1cc2nccc(Oc3ccc(N(C)C(=O)c4ccc(C(C)(C)C)cc4)cc3)c2cc1OC | 6 µM | 
COc1cc2nccc(Oc3ccc(O)cc3)c2cc1OC | 16 µM | 
COc1cc2nccc(Oc3ccc(C(=O)c4ccc(OC(F)(F)F)cc4)cc3)c2cc1OC | > 100 µM | 
COc1cc2nccc(Oc3cccc(C(=O)c4ccccc4)c3)c2cc1OC | 89 µM | 
COc1cc2nccc(Oc3ccc(C(=O)c4ccccc4C(F)(F)F)cc3)c2cc1OC | 21 µM | 
CCCCc1ccc(C(=O)Nc2ccc(Oc3ccnc4cc(OC)c(OC)cc34)cc2)cc1 | > 100 µM | 
COc1cc2nccc(Oc3ccc(C(=O)c4ccc(I)cc4)cc3)c2cc1OC | > 100 µM | 
COc1cc2nccc(Oc3cccc(OC)c3OC)c2cc1OC | > 100 µM | 
COc1cc2nccc(Oc3ccc(NC(=O)c4ccc(C(C)(C)C)cc4)cc3)c2cc1OC | > 100 µM | > 100 µM
COc1cc2nccc(Oc3ccc(C(=O)c4cccs4)cc3)c2cc1OC | 16 µM | 
COc1cc2nccc(Oc3c(OC)cccc3OC)c2cc1OC | 81 µM | 

Other lines, results leading:

IC50 [1] | IC50 [2] | SMILES
> 100 µM |  | COc1cc2nccc(Oc3ccc(NC(=O)C4CCCCC4)cc3)c2cc1OC
44 µM |  | COc1ccc(Oc2ccnc3cc(OC)c(OC)cc23)cc1
> 100 µM |  | COc1cc2nccc(Oc3ccc(C(=O)c4cccc(C(F)(F)F)c4)cc3)c2cc1OC
14 µM |  | COc1cc2nccc(Oc3cccc(C)c3)c2cc1OC
24 µM |  | COc1cc2nccc(Oc3cccc(F)c3)c2cc1OC
> 100 µM |  | COc1cc2nccc(Oc3ccc(N)cc3)c2cc1OC
> 100 µM |  | COc1cc2nccc(Oc3ccc(NC(=O)c4cccs4)cc3)c2cc1OC
40 µM |  | COc1cc2nccc(Oc3cccc(N)c3)c2cc1OC
50 µM |  | COc1cc2nccc(Oc3ccccc3)c2cc1OC
> 100 µM |  | COc1cc2nccc(Oc3cccc(C(C)=O)c3)c2cc1OC
43 µM |  | COc1cc2nccc(Oc3ccc(C(=O)c4ccccc4C)cc3)c2cc1OC
> 100 µM |  | COc1cc2nccc(Oc3ccc(C(C)=O)cc3)c2cc1OC
> 100 µM |  | CCCCc1ccc(C(=O)c2ccc(Oc3ccnc4cc(OC)c(OC)cc34)cc2)cc1
20 µM |  | COc1cc2nccc(Oc3ccc(Br)cc3)c2cc1OC
93 µM |  | COc1cc2nccc(Oc3ccc(NC(=O)c4ccc(C(F)(F)F)cc4)cc3)c2cc1OC
> 100 µM |  | COc1cc2nccc(Oc3ccc(C(=O)C4CCCCC4)cc3)c2cc1OC
> 100 µM |  | CCCCOc1ccc(C(=O)Nc2ccc(Oc3ccnc4cc(OC)c(OC)cc34)cc2)cc1
92 µM |  | COc1cc2nccc(Oc3ccccc3OC)c2cc1OC

IC50 [1] | IC50 [2] | SMILES
> 100 µM |  | COc1cc2nccc(Oc3ccc(C(=O)c4ccc(Br)cc4)cc3)c2cc1OC
> 100 µM |  | COc1cc2nccc(Oc3ccc(C(=O)c4ccco4)cc3)c2cc1OC
0.65 µM |  | COc1cc2nccc(Oc3cccc(NC(=O)c4ccc(C(C)(C)C)cc4)c3)c2cc1OC
> 100 µM |  | COc1ccc(C(=O)Nc2ccc(Oc3ccnc4cc(OC)c(OC)cc34)cc2)cc1OC
> 100 µM |  | COC(=O)c1cccc(Oc2ccnc3cc(OC)c(OC)cc23)c1
> 100 µM |  | COc1cc2nccc(Oc3ccc(C(=O)c4ccc([N+](=O)[O-])cc4)cc3)c2cc1OC
> 100 µM |  | COc1cc2nccc(Oc3ccc(NC(=O)c4ccc([N+](=O)[O-])cc4)cc3)c2cc1OC
48 µM |  | COc1cc2nccc(Oc3ccc(NC(=O)c4ccc(Br)cc4)cc3)c2cc1OC
> 100 µM |  | COc1cc2nccc(Oc3ccc(NC(=O)c4ccco4)cc3)c2cc1OC
19 µM |  | COc1cc2nccc(Oc3cccc(O)c3)c2cc1OC
14 µM |  | COc1cc2nccc(Oc3ccccc3C(=O)c3ccccc3)c2cc1OC
> 100 µM |  | COc1cc2nccc(Oc3ccc(C(=O)c4ccc(C#N)cc4)cc3)c2cc1OC
35 µM |  | COc1cc2nccc(Oc3cccc([N+](=O)[O-])c3)c2cc1OC
> 100 µM |  | COc1cc2nccc(Oc3ccc(C(=O)c4ccc(Cl)cc4)cc3)c2cc1OC
> 100 µM |  | COc1cc2nccc(Oc3ccc(NC(=O)c4ccc(C(C)=O)cc4)cc3)c2cc1OC
> 100 µM |  | COc1cc2nccc(Oc3ccc(C(=O)c4ccc(C(F)(F)F)cc4)cc3)c2cc1OC
> 100 µM |  | COc1cc2nccc(Oc3ccc(C(=O)c4ccc(-c5ccccc5)cc4)cc3)c2cc1OC
